Assay results from patent US20090291938A1 (TAKEDA PHARMACEUTICAL COMPANY LIMITED, priority 2007, published 2009).

system: HT29 human colorectal adenocarcinoma cell line; assay: cell proliferation assay (Cell Titer-Glo luminescent cell viability assay); type: cell-based; conditions: HT-29, 72 h, read-out: pIC50 (converted)
How it was run: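 Cells grown in DMEM with 10% FBS and exposed to compounds for 72 h. Viability read by CellTiter-Glo luminescence, expressed as percentage of DMSO-treated cells.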

| Structure (SMILES) | IC50 |
| --- | --- |
| COc1cc(C(=O)NC2CCN(C)CC2)ccc1Nc1ncc2c(n1)N(C1CCCCC1)CC(C)(C)C(=O)N2C [Compound 109, 4-(9-cyclohexyl-5,7,7-trimethyl-6-oxo-6,7,8,9-tetrahydro-5H-pyrimido[4,5-b][1,4]diazepin-2-ylamino)-3-methoxy-N-(1-methylpiperidin-4-yl)benzamide] | 1 to 2.51 nM |

same assay, conditions: HT-29, cell proliferative assay, HT29 cells, 72 hr treatment, values given as ranges, read-out: pIC50 (converted)

| IC50 | Structure (SMILES) |
| --- | --- |
| 1 to 2.51 nM | COc1cc(C(=O)NN2CCN(C)CC2)ccc1Nc1ncc2c(n1)N(C1CCCCC1)CC(C)(C)C(=O)N2C [Compound 112, 4-(9-cyclohexyl-5,7,7-trimethyl-6-oxo-6,7,8,9-tetrahydro-5H-pyrimido[4,5-b][1,4]diazepin-2-ylamino)-3-methoxy-N-(4-methylpiperazin-1-yl)benzamide] |
| < 1 nM | C=CC[C@H]1CN(C2CCCC2)c2nc(Nc3ccc(C(=O)NC4CN(C)C4)cc3OC)ncc2N(C)C1=O [Compound 196, (S)-4-(7-allyl-9-cyclopentyl-5-methyl-6-oxo-6,7,8,9-tetrahydro-5H-pyrimido[4,5-b][1,4]diazepin-2-ylamino)-3-methoxy-N-(1-methylazetidin-3-yl)benzamide] |
| 3.16 to 10 nM | COc1cc(C(=O)NC2CN(C)C2)ccc1Nc1ncc2c(n1)N(C1CCC1)CC(C)(C)C(=O)N2C [Compound 154, 4-(9-cyclobutyl-5,7,7-trimethyl-6-oxo-6,7,8,9-tetrahydro-5H-pyrimido[4,5-b][1,4]diazepin-2-ylamino)-3-methoxy-N-(1-methylazetidin-3-yl)benzamide] |
| < 1 nM | C=CC[C@H]1CN(C2CCCC2)c2nc(Nc3ccc(C(=O)N[C@H]4CCN(C)C4)cc3OC)ncc2N(C)C1=O [Compound 205, 4-((S)-7-allyl-9-cyclopentyl-5-methyl-6-oxo-6,7,8,9-tetrahydro-5H-pyrimido[4,5-b][1,4]diazepin-2-ylamino)-3-methoxy-N-((S)-1-methylpyrrolidin-3-yl)benzamide] |
| < 1 nM | CONC(=O)c1ccc(Nc2ncc3c(n2)N(C2CCCC2)CC(C)(C)C(=O)N3C)c(OC)c1 [Compound 102, 4-(9-cyclopentyl-5,7,7-trimethyl-6-oxo-6,7,8,9-tetrahydro-5H-pyrimido[4,5-b][1,4]diazepin-2-ylamino)-N,3-dimethoxybenzamide] |
| > 10 nM | C=CCC1CN(C2CCCCC2)c2nc(Nc3ccc(C(=O)N[C@@H]4CCN(C)C4)cc3OC)ncc2N(C)C1=O (stereo partly drawn) [Compound 230, 4-(7-allyl-9-cyclohexyl-5-methyl-6-oxo-6,7,8,9-tetrahydro-5H-pyrimido[4,5-b][1,4]diazepin-2-ylamino)-3-methoxy-N-((R)-1-methylpyrrolidin-3-yl)benzamide] |
| > 10 nM | COc1cc(C(=O)NCCN2CCCC2)ccc1Nc1ncc2c(n1)N(C1CCCC1)CCC(=O)N2C [Compound 57, 4-(9-cyclopentyl-5-methyl-6-oxo-6,7,8,9-tetrahydro-5H-pyrimido[4,5-b][1,4]diazepin-2-ylamino)-3-methoxy-N-(2-(pyrrolidin-1-yl)ethyl)benzamide] |
| 3.16 to 10 nM | C/C=C/CC1CN(C2CCCC2)c2nc(Nc3ccc(C(=O)NC4CCN(C)CC4)cc3OC)ncc2N(C)C1=O (stereo not drawn) [Compound 220, (E)-4-(7-(but-2-enyl)-9-cyclopentyl-5-methyl-6-oxo-6,7,8,9-tetrahydro-5H-pyrimido[4,5-b][1,4]diazepin-2-ylamino)-3-methoxy-N-(1-methylpiperidin-4-yl)benzamide] |
| > 10 nM | COc1cc(C(=O)NCCNC(C)=O)ccc1Nc1ncc2c(n1)N(C1CCCC1)CCC(=O)N2C [Compound 43, N-(2-acetamidoethyl)-4-(9-cyclopentyl-5-methyl-6-oxo-6,7,8,9-tetrahydro-5H-pyrimido[4,5-b][1,4]diazepin-2-ylamino)-3-methoxybenzamide] |
| 1 to 2.51 nM | COc1cc(C(=O)N[C@H]2CCCNC2)ccc1Nc1ncc2c(n1)N(C1CCCCC1)CC(C)(C)C(=O)N2C [Compound 111, (S)-4-(9-cyclohexyl-5,7,7-trimethyl-6-oxo-6,7,8,9-tetrahydro-5H-pyrimido[4,5-b][1,4]diazepin-2-ylamino)-3-methoxy-N-(piperidin-3-yl)benzamide] |
| 3.16 to 10 nM | COc1cc(C(=O)NCCCN2CCCC2=O)ccc1Nc1ncc2c(n1)N(C1CCCC1)CCC(=O)N2C [Compound 38, 4-(9-cyclopentyl-5-methyl-6-oxo-6,7,8,9-tetrahydro-5H-pyrimido[4,5-b][1,4]diazepin-2-ylamino)-3-methoxy-N-(3-(2-oxopyrrolidin-1-yl)propyl)benzamide] |
| 1 to 2.51 nM | COc1cc(C(=O)NC2CN(C)C2)ccc1Nc1ncc2c(n1)N(C1CCCCC1)CC1(CC1)C(=O)N2C [Compound 173, 4-(9′-cyclohexyl-5′-methyl-6′-oxo-5′,6′,8′,9′-tetrahydrospiro[cyclopropane-1,7′-pyrimido[4,5-b][1,4]diazepine]-2′-ylamino)-3-methoxy-N-(1-methylazetidin-3-yl)benzamide] |
| > 10 nM | COc1cc(C(=O)N[C@H]2CCCNC2)ccc1Nc1ncc2c(n1)N(C1CCCC1)CCC(=O)N2C [Compound 50, (S)-4-(9-cyclopentyl-5-methyl-6-oxo-6,7,8,9-tetrahydro-5H-pyrimido[4,5-b][1,4]diazepin-2-ylamino)-3-methoxy-N-(piperidin-3-yl)benzamide] |
| 3.16 to 10 nM | COc1cc(C(=O)N[C@@H]2CCCNC2)ccc1Nc1ncc2c(n1)N(C1CCCC1)CC(C)(C)C(=O)N2C [Compound 100, (R)-4-(9-cyclopentyl-5,7,7-trimethyl-6-oxo-6,7,8,9-tetrahydro-5H-pyrimido[4,5-b][1,4]diazepin-2-ylamino)-3-methoxy-N-(piperidin-3-yl)benzamide] |

Second part, the compound before the results:

| Structure (SMILES) | IC50 |
| --- | --- |
| C=CC[C@H]1CN(C2CCCC2)c2nc(Nc3ccc(C(=O)NC4CCNCC4)cc3OC)ncc2N(C)C1=O [Compound 207, (S)-4-(7-allyl-9-cyclopentyl-5-methyl-6-oxo-6,7,8,9-tetrahydro-5H-pyrimido[4,5-b][1,4]diazepin-2-ylamino)-3-methoxy-N-(piperidin-4-yl)benzamide] | 3.16 to 10 nM |
| COc1cc(C(=O)NCCN2CCNCC2)ccc1Nc1ncc2c(n1)N(C1CCCC1)CCC(=O)N2C [Compound 55, 4-(9-cyclopentyl-5-methyl-6-oxo-6,7,8,9-tetrahydro-5H-pyrimido[4,5-b][1,4]diazepin-2-ylamino)-3-methoxy-N-(2-(piperazin-1-yl)ethyl)benzamide] | > 10 nM |
| COc1cc(C(=O)NC2CCN(S(C)(=O)=O)CC2)ccc1Nc1ncc2c(n1)N(C1CCCC1)CCC(=O)N2C [Compound 37, 4-(9-cyclopentyl-5-methyl-6-oxo-6,7,8,9-tetrahydro-5H-pyrimido[4,5-b][1,4]diazepin-2-ylamino)-3-methoxy N-(1-(methylsulfonyl)piperidin-4-yl)benzamide] | 3.16 to 10 nM |
| CC#CC[C@@H]1CN(C2CCCC2)c2nc(Nc3ccc(C(=O)NC4CCN(C)CC4)cc3OC)ncc2N(C)C1=O [Compound 216, (R)-4-(7-(but-2-ynyl)-9-cyclopentyl-5-methyl-6-oxo-6,7,8,9-tetrahydro-5H-pyrimido[4,5-b][1,4]diazepin-2-ylamino)-3-methoxy-N-(1-methylpiperidin-4-yl)benzamide] | 1 to 2.51 nM |
| C=CCC1CN(C2CCCCC2)c2nc(Nc3ccc(C(=O)NN4CCN(C)CC4)cc3OC)ncc2N(C)C1=O (stereo not drawn) [Compound 226, 4-(7-allyl-9-cyclohexyl-5-methyl-6-oxo-6,7,8,9-tetrahydro-5H-pyrimido[4,5-b][1,4]diazepin-2-ylamino)-3-methoxy-N-(4-methylpiperazin-1-yl)benzamide] | 1 to 2.51 nM |
| COc1cc(C(=O)NC2CN(C)C2)ccc1Nc1ncc2c(n1)N(C1CCCCC1)CC(C1CC1)C(=O)N2C (stereo not drawn) [Compound 157, 4-(9-cyclohexyl-7-cyclopropyl-5-methyl-6-oxo-6,7,8,9-tetrahydro-5H-pyrimido[4,5-b][1,4]diazepin-2-ylamino)-3-methoxy-N-(1-methylazetidin-3-yl)benzamide] | > 10 nM |
| COc1cc(C(=O)NN2CCN(CCO)CC2)ccc1Nc1ncc2c(n1)N(C1CCCC1)CC(C)(C)C(=O)N2C [Compound 105, 4-(9-cyclopentyl-5,7,7-trimethyl-6-oxo-6,7,8,9-tetrahydro-5H-pyrimido[4,5-b][1,4]diazepin-2-ylamino)-N-(4-(2-hydroxyethyl)piperazin-1-yl)-3-methoxybenzamide] | 1 to 2.51 nM |
| COc1cc(C(=O)NCC2CCN(C(=O)C3CC3)CC2)ccc1Nc1ncc2c(n1)N(C1CCCC1)CCC(=O)N2C [Compound 76, 4-(9-cyclopentyl-5-methyl-6-oxo-6,7,8,9-tetrahydro-5H-pyrimido[4,5-b][1,4]diazepin-2-ylamino)-N-((1-(cyclopropanecarbonyl)piperidin-4-yl)methyl)-3-methoxybenzamide] | > 10 nM |
| CCN1CCC(NC(=O)c2ccc(Nc3ncc4c(n3)N(C3CCCC3)CC(C)(C)C(=O)N4C)c(OC)c2)CC1 [Compound 87, 4-(9-cyclopentyl-5,7,7-trimethyl-6-oxo-6,7,8,9-tetrahydro-5H-pyrimido[4,5-b][1,4]diazepin-2-ylamino)-N-(1-ethylpiperidin-4-yl)-3-methoxybenzamide] | 1 to 2.51 nM |
| C=CCC1CN(C2CCCCC2)c2nc(Nc3ccc(C(=O)N[C@H]4CCNC4)cc3OC)ncc2N(C)C1=O (stereo partly drawn) [Compound 194, 4-(7-allyl-9-cyclohexyl-5-methyl-6-oxo-6,7,8,9-tetrahydro-5H-pyrimido[4,5-b][1,4]diazepin-2-ylamino)-3-methoxy-N-((S)-pyrrolidin-3-yl)benzamide] | < 1 nM |
| COc1cc(C(=O)NN2CCN(C3CCCC3)CC2)ccc1Nc1ncc2c(n1)N(C1CCCCC1)CC(C)(C)C(=O)N2C [Compound 117, 4-(9-cyclohexyl-5,7,7-trimethyl-6-oxo-6,7,8,9-tetrahydro-5H-pyrimido[4,5-b][1,4]diazepin-2-ylamino)-N-(4-cyclopentylpiperazin-1-yl)-3-methoxybenzamide] | 3.16 to 10 nM |
| CCN(CC)C1CCC(NC(=O)c2ccc(Nc3ncc4c(n3)N(C3CCCC3)CCC(=O)N4C)c(OC)c2)CC1 (stereo not drawn) [Compound 79, 4-(9-cyclopentyl-5-methyl-6-oxo-6,7,8,9-tetrahydro-5H-pyrimido[4,5-b][1,4]diazepin-2-ylamino)-N-(4-(diethylamino)cyclohexyl) 3-methoxybenzamide] | > 10 nM |
